Measurements reported in ChEMBL document CHEMBL1143510, “Synthesis and in vitro antitumor activity of 4(3H)-quinazolinone derivatives with dithiocarbamate side chains” (Bioorg Med Chem Lett, 2005).
pIC50: −log10 of the molar value.

System: K562
Test: In vitro cytotoxic concentration measured against human myelogenous leukemia K562 cells
Type: functional, cell-based

`Cc1nc(O)c2cc(CSC(=S)N3CCCCC3)ccc2n1` showed a pIC50 of 4.95.

`Cc1nc(O)c2cc(CS/C(S)=N/C34CC5CC(CC(C5)C3)C4)ccc2n1` showed a pIC50 of 4.51.

`Cc1nc(O)c2cc(CS/C(S)=N/C3CCCCC3)ccc2n1` showed a pIC50 of 4.51.

For `Cc1nc(O)c2cc(CSC(=S)N3CCN(c4ccc(F)cc4)CC3)ccc2n1`, the pIC50 was 6.30.

For `Cc1nc(O)c2cc(CS/C(S)=N/Cc3ccccc3)ccc2n1`, the pIC50 was 5.40.

In the case of `CCOC(=O)C1CSCN1C(=S)SCc1ccc2nc(C)nc(O)c2c1` (centres undefined), the pIC50 was 4.96.

For `Cc1nc(O)c2cc(CSC(=S)N3CCc4ccccc4C3)ccc2n1`, the pIC50 was 5.48.

Compound `Cc1nc(O)c2cc(CSC(=S)N(C3CCCCC3)C3CCCCC3)ccc2n1` has a pIC50 of 5.12.

With `CN(Cc1cnc2nc(N)nc(N)c2n1)c1ccc(C(=O)N[C@@H](CCC(=O)O)C(=O)O)cc1` [METHOTREXATE] the pIC50 was 3.38.

With `Cc1nc(O)c2cc(CSC(=S)N3CCN(Cc4ccccc4)CC3)ccc2n1` the pIC50 was 5.13.

`Cc1nc(O)c2cc(CSC(=S)N3CCN(C(c4ccc(F)cc4)c4ccc(F)cc4)CC3)ccc2n1` showed a pIC50 of 5.37.

With `Cc1nc(O)c2cc(CSC(=S)N3CCOCC3)ccc2n1` the pIC50 was 5.14.

`CCOC(=O)C1(c2ccccc2)CCN(C(=S)SCc2ccc3nc(C)nc(O)c3c2)CC1` showed a pIC50 of 5.06.

For `Cc1nc(O)c2cc(CSC(=S)N3CC(C)OC(C)C3)ccc2n1` (centres undefined), the pIC50 was 5.43.

`Cc1nc(O)c2cc(CSC(=S)N3CCN(C)CC3)ccc2n1` was tested, and the pIC50 was 4.97.

`Cc1nc(O)c2cc(CS/C(S)=N/CCCN(C)C)ccc2n1` showed a pIC50 of 4.59.

`CCN(CC)C(=S)SCc1ccc2nc(C)nc(O)c2c1` was tested, and the pIC50 was 5.36.

`CSC(=S)NCc1c[nH]c2ccccc12` [BRASSININ] gave a pIC50 of 3.89.

`Cc1nc(O)c2cc(CS/C(S)=N/Cc3ccco3)ccc2n1` gave a pIC50 of 5.68.
